From ChEMBL document CHEMBL3885861, “Open TG-GATES”

Species on record: Rattus norvegicus
Assay: Open TG-GATES - Regimen: Single
Format: toxicity, organism-based, Sprague-Dawley
Design: regimen Single, gender Male, age 6 weeks
Details: in vivo, po, 0 mg/kg, route gavage, dose level Control; for APTT / Bas / Eos / Fbg / Hb / Ht / Lym / MCH / MCHC / MCV / Mono / Neu / PT / Plat / RBC / Ret / WBC: tissue Blood; for KIDNEY_L / KIDNEY_R / KIDNEY_TOTAL: tissue Kidney; for LIVER: tissue Liver; for A/G / ALP / ALT / AST / BUN / CRE / Ca / Cl / DBIL / GLC / IP / K / LDH / Na / PL / RALB / TBIL / TC / TG / TP / gamma-GTP: tissue Plasma

`NC(=O)N/N=C/c1ccc([N+](=O)[O-])o1` [NITROFURAZONE] gave a TERMINAL_BW (3 h) of 181.6 g, an APTT (3 h) of 15.7 s and a Bas (3 h) of 0%. For the same molecule, the Eos (3 h) was 0.6%, the Fbg (3 h) was 250 mg/dL and the Hb (3 h) was 12.7 g/dL. The Ht (3 h) was 39.7%, the Lym (3 h) was 79% and the MCH (3 h) was 21.6 pg. It also gave an MCHC (3 h) of 32%, an MCV (3 h) of 67.7 fL and a Mono (3 h) of 2.8%. The Neu (3 h) was 17%, the PT (3 h) was 14.7 s and the Plat (3 h) was 114.3 x10_4/uL. The RBC (3 h) was 586.4 x10_4/ul, the Ret (3 h) was 10.9% and the WBC (3 h) was 77.6 x10_2/uL. For the same molecule, the KIDNEY_L (3 h) was 0.8 g, the KIDNEY_R (3 h) was 0.8 g and the KIDNEY_TOTAL (3 h) was 1.6 g. It also gave an LIVER (3 h) of 8.2 g, an A/G (3 h) of 0.9 and an ALP (3 h) of 1508.2 IU/L. The ALT (3 h) was 45.4 IU/L, the AST (3 h) was 78 IU/L and the BUN (3 h) was 9.8 mg/dL. For the same molecule, the CRE (3 h) was 0.2 mg/dL, the Ca (3 h) was 11.3 mg/dL and the Cl (3 h) was 104.8 meq/L. The DBIL (3 h) was 0.012 mg/dL, the GLC (3 h) was 179.2 mg/dL and the IP (3 h) was 9.6 mg/dL. For the same molecule, the K (3 h) was 4.1 meq/L, the LDH (3 h) was 49.8 IU/L and the Na (3 h) was 141 meq/L. For the same molecule, the PL (3 h) was 141.8 mg/dL, the RALB (3 h) was 2.4 g/dL and the TBIL (3 h) was 0.056 mg/dL. For the same molecule, the TC (3 h) was 80.4 mg/dL, the TG (3 h) was 54.6 mg/dL and the TP (3 h) was 5.2 g/dL. The gamma-GTP (3 h) was 1.2 IU/L, the TERMINAL_BW (6 h) was 180.8 g and the APTT (6 h) was 16.4 s. For the same molecule, the Bas (6 h) was 0.2%, the Eos (6 h) was 0.6% and the Fbg (6 h) was 266.6 mg/dL. For the same molecule, the Hb (6 h) was 12.7 g/dL, the Ht (6 h) was 39.4% and the Lym (6 h) was 73.2%. The MCH (6 h) was 22.1 pg, the MCHC (6 h) was 32.2% and the MCV (6 h) was 68.6 fL. The Mono (6 h) was 3%, the Neu (6 h) was 21.8% and the PT (6 h) was 14.6 s. The Plat (6 h) was 118.4 x10_4/uL, the RBC (6 h) was 576.2 x10_4/ul and the Ret (6 h) was 11%. It also gave a WBC (6 h) of 90.9 x10_2/uL, a KIDNEY_L (6 h) of 0.8 g and a KIDNEY_R (6 h) of 0.9 g. The KIDNEY_TOTAL (6 h) was 1.7 g, the LIVER (6 h) was 7.4 g and the A/G (6 h) was 0.9. It also gave an ALP (6 h) of 1461 IU/L, an ALT (6 h) of 44.4 IU/L and an AST (6 h) of 77.2 IU/L. The BUN (6 h) was 8 mg/dL, the CRE (6 h) was 0.2 mg/dL and the Ca (6 h) was 11 mg/dL. The Cl (6 h) was 105 meq/L, the DBIL (6 h) was 0.01 mg/dL and the GLC (6 h) was 169.8 mg/dL. For the same molecule, the IP (6 h) was 10.3 mg/dL, the K (6 h) was 4.2 meq/L and the LDH (6 h) was 61.4 IU/L. For the same molecule, the Na (6 h) was 140.6 meq/L, the PL (6 h) was 132.2 mg/dL and the RALB (6 h) was 2.4 g/dL. For the same molecule, the TBIL (6 h) was 0.062 mg/dL, the TC (6 h) was 78.2 mg/dL and the TG (6 h) was 36.2 mg/dL. The TP (6 h) was 5.2 g/dL, the gamma-GTP (6 h) was 1 IU/L and the TERMINAL_BW (9 h) was 179.5 g. It also gave an APTT (9 h) of 15.7 s, a Bas (9 h) of 0% and an Eos (9 h) of 0.6%. It also gave a Fbg (9 h) of 260 mg/dL, a Hb (9 h) of 12.7 g/dL and a Ht (9 h) of 39.8%. For the same molecule, the Lym (9 h) was 75%, the MCH (9 h) was 21.6 pg and the MCHC (9 h) was 32%. For the same molecule, the MCV (9 h) was 67.5 fL, the Mono (9 h) was 2.4% and the Neu (9 h) was 21.4%. For the same molecule, the PT (9 h) was 14.5 s, the Plat (9 h) was 109.4 x10_4/uL and the RBC (9 h) was 590.6 x10_4/ul. The Ret (9 h) was 10.5%, the WBC (9 h) was 64.3 x10_2/uL and the KIDNEY_L (9 h) was 0.8 g. For the same molecule, the KIDNEY_R (9 h) was 0.8 g, the KIDNEY_TOTAL (9 h) was 1.6 g and the LIVER (9 h) was 7.1 g. The A/G (9 h) was 0.9, the ALP (9 h) was 1214.2 IU/L and the ALT (9 h) was 47.8 IU/L. It also gave an AST (9 h) of 79.4 IU/L, a BUN (9 h) of 8.8 mg/dL and a CRE (9 h) of 0.2 mg/dL. For the same molecule, the Ca (9 h) was 11 mg/dL, the Cl (9 h) was 105 meq/L and the DBIL (9 h) was 0.012 mg/dL. The GLC (9 h) was 169 mg/dL, the IP (9 h) was 10.6 mg/dL and the K (9 h) was 3.9 meq/L. It also gave an LDH (9 h) of 55.2 IU/L, a Na (9 h) of 142 meq/L and a PL (9 h) of 139.4 mg/dL. For the same molecule, the RALB (9 h) was 2.4 g/dL, the TBIL (9 h) was 0.062 mg/dL and the TC (9 h) was 85.2 mg/dL. It also gave a TG (9 h) of 25 mg/dL, a TP (9 h) of 5.2 g/dL and a gamma-GTP (9 h) of 1.4 IU/L. The TERMINAL_BW (24 h) was 194.2 g, the APTT (24 h) was 17.5 s and the Bas (24 h) was 0%. For the same molecule, the Eos (24 h) was 0.8%, the Fbg (24 h) was 246.6 mg/dL and the Hb (24 h) was 13 g/dL. The Ht (24 h) was 40.1%, the Lym (24 h) was 76.8% and the MCH (24 h) was 22 pg. It also gave an MCHC (24 h) of 32.4%, an MCV (24 h) of 67.8 fL and a Mono (24 h) of 3.2%. The Neu (24 h) was 18.6%, the PT (24 h) was 14.8 s and the Plat (24 h) was 111.2 x10_4/uL. It also gave an RBC (24 h) of 592.4 x10_4/ul, a Ret (24 h) of 9.7% and a WBC (24 h) of 96.7 x10_2/uL. The KIDNEY_L (24 h) was 0.8 g, the KIDNEY_R (24 h) was 0.9 g and the KIDNEY_TOTAL (24 h) was 1.7 g. The LIVER (24 h) was 9 g, the A/G (24 h) was 0.9 and the ALP (24 h) was 1711.4 IU/L. The ALT (24 h) was 48.4 IU/L, the AST (24 h) was 74.4 IU/L and the BUN (24 h) was 14.8 mg/dL. For the same molecule, the CRE (24 h) was 0.2 mg/dL, the Ca (24 h) was 11.3 mg/dL and the Cl (24 h) was 104.8 meq/L. The DBIL (24 h) was 0.012 mg/dL, the GLC (24 h) was 177.6 mg/dL and the IP (24 h) was 8 mg/dL. The K (24 h) was 3.7 meq/L, the LDH (24 h) was 61.2 IU/L and the Na (24 h) was 142 meq/L. It also gave a PL (24 h) of 149.2 mg/dL, an RALB (24 h) of 2.5 g/dL and a TBIL (24 h) of 0.044 mg/dL. It also gave a TC (24 h) of 82.2 mg/dL, a TG (24 h) of 72.4 mg/dL and a TP (24 h) of 5.4 g/dL. For the same molecule, the gamma-GTP (24 h) was 1 IU/L.
